Results reported in patent US9096853B2, “Modified siRNA molecules incorporating 5-fluoro-2′-deoxyuridine residues to enhance cytotoxicity” (U.S. Department of Veterans Affairs, priority 2012, dated 2015).
[5FU] = 5-fluorouracil base, with d sugar it is 5-fluoro-2'-deoxyuridine (FdU); d = 2'-deoxy (DNA); r = 2'-OH (RNA)

Experiments:
[1] = tested on: human colon cancer RKO cell line; assay: Cell proliferation assay (WST-1) in RKO cells; assay type: cell-based; details: for IC50: 6 hr exposure then 96 hr growth, mean ± S.D., at least 3 experiments
Description: RKO cells were plated in 96-well plates at a density of 800 cells/well. On the following day, cells were incubated with ssiRNA/LF2000 complexes for 6 hr, after which time, the growth medium was replaced, and cells were grown for an additional 96 hr. Similarly, RKO cells were treated with FdU (#F0503, Sigma) for 6 hr followed by medium replacement and then allowed to grow for an additional 96 hr. Cell proliferation/viability was quantified by the WST-1 assay (Roche; Indianapolis, Ind.).

TS mRNA = assay: Real time qRT-PCR analysis of TS mRNA; assay type: cell-based, human; details: RKO cells, ssiRNA 1 nM, 48 hr
Description: (§1) FIGS. 1A-B illustrate the effect of FdU incorporation in ssiRNA on TS protein expression. RKO cells were transfected with TS6 ssiRNAs (1 nM) containing various 3′-overhangs. After 6 hr, the medium was replaced. After an additional 48 hr, cells were harvested and processed for immunoblot and qPCR analysis as described in the Materials and Methods section. (A) Representative blot from 4 experiments. (B) All qPCR values represent the mean±S.D. from at least 3 separate experiments performed in triplicate. The normalized amount of TS mRNA from mock-transfected cells (LF2000) was set to 1.0 and all other values compared against that value. ITC, inhibitory ternary complex;
Cells were plated at a density of 1.5×10^5 cells/well. […]
The first-strand cDNA was synthesized using 1.0 μg total RNA and the iScript™ Reverse Transcription Supermix for real-time quantitative polymerase chain reaction (qRT-PCR) (Bio-Rad; Hercules, Calif.). PCR was performed in triplicate using the SsoFast™ Probes Supermix (Bio-Rad) in a final reaction volume of 10 μL with gene-specific primer/probe sets, and a standard thermal cycling procedure (40 cycles) on a Bio-Rad CFX96™ Real-Time PCR System. mRNA levels of TS and 18S RNA were assessed using the TaqMan Gene Expression real-time PCR assays (Applied Biosystems; assay ID: Hs00426586_m1 and Hs03928990_g1, respectively). Results were expressed as the threshold cycle (Ct). […]

[2] = tested on: thymidylate synthase (TS) protein; assay: Immunoblot analysis of TS protein (free and ITC-bound), Odyssey quantitation; assay type: cell-based, human; details: RKO cells; for formation of the ITC immediately after transfection: ssiRNA 10 nM, 0 hr after 6 hr transfection
[3] = tested on: human colon cancer RKO cell line; assay: Clonogenic assay in RKO cells; assay type: cell-based; details: for IC50: 6 hr exposure, colonies counted after 8 days, mean ± S.D., at least 3 experiments
Description: RKO cells were plated in 6-well plates at a density of 600 cells/well. On the following day, cells were transfected with ssiRNA/LF2000 complexes for 6 hr after which time, the growth medium was replaced. Similarly, FdU was added to wells for 6 hr followed by medium replacement. After 8 days, cell colonies were fixed with Trypan blue solution (75% methanol/25% acetic acid/0.25% trypan blue), washed, and air-dried before counting colonies >50 cells.

[4] = tested on: p53, Fas, cleaved PARP, γH2AX, p-ATM; assay: Immunoblot of DNA damage and apoptosis signaling proteins, time course; assay type: cell-based, human; details: RKO cells, ssiRNA 10 nM, 0-72 hr
Description: FIG. 5 illustrates time-dependent effects of FdU-containing ssiRNAs on protein expression. RKO cells were transfected with various TS6 ssiRNAs (10 nM). After 6 hr, the medium was replaced, and cells were harvested for immunoblot blot analysis at the following times: before39 transfection (pre) and 0, 24, 48, and 72 hr after transfection. Images shown are representative blots from at least 4 different experiments; and
(§2) Protein concentrations of cell lysates were determined using the DC Protein Assay (Bio-Rad; Hercules, Calif.). Equal amounts of protein (30 μg) from each cell lysate were resolved on SDS-PAGE using the method of Laemmli (Reference 19) and transferred onto 0.45 μm nitrocellulose membranes (Bio-Rad). Membranes were blocked and incubated overnight with primary antibodies at 4° C. The following antibodies were used in the experiments: anti-TS (Clone 4H4B1; Invitrogen), anti-TS (#5449; Cell Signaling; San Francisco, Calif.), anti-p21 Waf1/Cip1 (#2947; Cell Signaling), anti-p53 (#sc-126; Santa Cruz Biotechnology; Santa Cruz, Calif.), anti-PARP (#9542; Cell Signaling), anti-Fas (#4233; Cell Signaling), anti-phospho-histone H2A.X (Ser139) (#2577; Cell Signaling), anti-histone H2A.X (#7631; Cell Signaling), anti-phospho-ATM (pS1981; EPITOMICS Inc.; Burlingame, Calif.), anti-ATM (#A1106; Sigma), and anti-α-tubulin (EMD Biosciences; San Diego, Calif.). After multiple TBST washes (1×TBS, 0.1% Tween-20), membranes were incubated with corresponding horseradish peroxidase-conjugated secondary antibodies (Bio-Rad) for 1 hr at room temperature. Proteins were detected by the enhanced chemiluminescence method (SuperSignal West Pico substrate; Pierce; Rockford, Ill.). Quantitation of signal intensities was performed by densitometry on a Xerox scanner using NIH IMAGEJ software.

[5] = tested on: thymidylate synthase (TS) protein; assay: Immunoblot analysis of TS protein (free and ITC-bound), Odyssey quantitation; assay type: cell-based, human; details: RKO cells, ssiRNA 1 nM, 48 hr; for Free TS (%) / ITC-Bound TS (%): normalized to free TS protein in mock-transfected cells (LF2000) set to 100%, mean ± S.D., 6 experiments
Description: as §1
Cells were plated at a density of 1.5×10^5 cells/well. On the following day, ssiRNAs were complexed with Lipofectamine 2000 (LF2000, Invitrogen) in serum-free RPMI-1640 medium and added to the plated cells. After 48 hr, cells were rinsed with PBS and scraped in cell lysis buffer (10 mM Tris pH7.4, 150 mM NaCl, 1 mM EDTA, 1% IGEPAL, 0.5% sodium deoxycholate, and 0.1% SDS) containing freshly added Protease Inhibitor Cocktail (Sigma; St. Louis, Mo.), 1 mM phenylmethylsulfonyl fluoride, and phosphatase inhibitors (Sigma). Lysates were sonicated and then centrifuged at 14,000 rpm for 30 min at 4° C. to remove debris. Cell lysates were stored at −80° C. for future use. For mRNA analysis, total RNA was extracted using Trizol (Invitrogen) and stored at −80° C. for future use.
as §2
Immunoblots were prepared as described above. After incubation with anti-TS polyclonal antibody, membranes were blocked with the Odyssey blocking buffer and incubated with IRDye 800CW goat anti-rabbit antibody (LI-COR Biosciences; Lincoln, Nebr., USA) according to the manufacturer instructions. The fluorescent signal was detected and quantified using the Odyssey infrared imaging system (LI-COR).

GC3/TK− cells = assay: Cell proliferation (WST-1) in thymidine kinase-deficient GC3/TK− cells; assay type: cell-based, human; details: 6 hr transfection, additional 5 days
Description: FIGS. 2A-B illustrate the effect of TK knockdown on the cytotoxicity of the FdU-modified ssiRNA. (A) RKO cells were transfected with 1 nM TK siRNA (lanes 3 and 4) or Mis-dU/dA (lane 5). After 6 hr, the medium was replaced with fresh medium. On the following day, cells were transfected with TS6-FdU/dA ssiRNA (1 nM) for 6 hr (lanes 2, 4, and 5) after which time, cells were harvested for immunoblot analysis. RKO cells were treated with 5-fluorouracil (5 nM) for 6 hr before harvesting (lane 6). (B) GC3/TK− cells were transfected with various concentrations of TS6-dU/dA or TS6-FdU/dA ssiRNA. After 6 hr, the medium was replaced and after an additional 5 days, cell proliferation was determined with the WST-1 assay;
The human colon cancer RKO cell line, originally obtained from ATCC, has been previously well-characterized and was maintained in RPMI-1640 (Invitrogen; Carlsbad, Calif.) with 10% (v/v) dialyzed fetal bovine serum at 37° C. in a humidified incubator with 5% CO2 (Reference 11). The thymidine kinase-deficient GC3/TK− cells were a gift from Dr. Janet Houghton (Reference 18). Cells were routinely authenticated by morphology and growth curve analysis. […]
RKO cells were plated in 96-well plates at a density of 800 cells/well. […] Cell proliferation/viability was quantified by the WST-1 assay (Roche; Indianapolis, Ind.).

RKO cells = assay: Flow cytometry, FITC Annexin V apoptosis detection; assay type: cell-based, human; details: ssiRNA 10 nM, after 72 hr
Description: FIGS. 6A-B illustrate induction of apoptosis after transfection of FdU-containing ssiRNAs. RKO cells were transfected with various TS6 ssiRNAs (10 nM). After 6 hr, the medium was replaced with fresh medium. After 72 hr, cells were harvested, fixed, stained, and analyzed by flow cytometry as described in the Materials and Methods section. (A) Representative cytometry images from one experiment. Lower left quadrant represents viable cells; lower right quadrant, early apoptotic cells; upper right quadrant, late apoptotic cells; upper left quadrant, necrotic cells. (B) Percentage values represent the mean±S.D. from 3 separate experiments.
RKO cells were plated in T-25 cm^2 flasks at a density of 2.5×10^5/flask. Cells were transfected on the following day with siRNA/LF2000 complexes for 6 hr. After medium replacement and additional incubation for 48 and 72 hr, respectively, cells were harvested, washed twice with PBS, resuspended in 1× binding buffer at a concentration of 1×10^6 cells/mL according to the manufacturer's protocol, stained with FITC Annexin V Apoptosis Detection Kit (BD Biosciences; San Jose, Calif.), and analyzed on the BD Accuri C6 Flow Cytometer (BD Accuri Cytometers Inc.; Ann Arbor, Mich.) at the UPCI Flow Cytometry Facility.

Substance | IC50 [1] | effect on TS mRNA expression (in words) (TS mRNA) | formation of the ITC immediately after transfection [2] | IC50 [3] | biomarkers of DNA damage, γH2AX and p-ATM [4] | effect on TS protein expression (in words) [5] | Free TS (%) [5] | ITC-Bound TS (%) [5] | enhancement of IC50 versus non-targeted mismatch-FdU/dA, growth assay [1] | formation of the ITC after knockdown of thymidine kinase ([2]; TK siRNA 1 nM, next day TS6-FdU/dA 1 nM for 6 hr) | IC50 (GC3/TK− cells) | early and late apoptotic cells (RKO cells) | lower IC50 versus non-targeted mismatch-FdU/dA, clonogenic assay [3] | cleaved PARP, a marker of apoptosis [4] | p53 levels [4]
Mis-FdU/dA: control, non-targeted ssiRNA containing 5 FdU residues on the sense strand; SEQ ID NO: 21 and 22 (chain 1 GGAUACUGCCAAUCUCUAGGUUUUU; chain 2 CCUAGAGAUUGGCAGUAUCCAAAAA; chain 1: sugars from the 5' end r20 d5, [5FU] at 21, 22, 23, 24, 25, backbone not given here; chain 2: sugars from the 5' end r20 d5, backbone not given here) | 2.88 nM | absolutely no inhibitory effect | formation of the ITC is observed | 1.75 nM | little to no effect | absolutely no inhibitory effect | 89.5 ± 26.2% | 45.6 ± 21.1% |  |  |  |  |  |  | 
TS6-FdU/dA: TS-targeted ssiRNA, all 3′-end overhang dU of sense strand replaced with FdU (5 FdU); SEQ ID NO: 9 and 10 (chain 1 GGAUAUUGUCAGUCUUUAGGUUUUU; chain 2 CCUAAAGACUGACAAUAUCCAAAAA; chain 1: sugars from the 5' end r20 d5, [5FU] at 21, 22, 23, 24, 25, backbone not given here; chain 2: sugars from the 5' end r20 d5, backbone not given here) | 0.81 nM |  | formation of the ITC is observed | 0.17 nM | strongly induced |  | 29.8 ± 12.0% | 22.0 ± 11.8% | 3.5 fold | prevented formation of the ITC | 45.9 ± 18.6 nM | significant increase | 10 fold | elevated | rapidly induced
